Test: Pharmacokinetic (PK) study after topical application: plasma, stratum corneum, epidermis, dermis
Assay type: in vivo, Bama miniature pigs
Method: Twenty-four (12 per sex) male and female Bama miniature pigs were divided into 5 groups. The ointment was applied to an estimated 10% of the animal's body surface area.
Animals in group 1 and group 2 received a single topical application of sample 2A and sample 2B, respectively. Plasma, stratum corneum, epidermis, and dermis samples were collected before administration (0 hour, plasma only) and at 0.5, 1, 4, 8, 12, and 24 hours after administration.
Group 3 animals were topically administered ointment sample 2B once daily for 7 consecutive days. Plasma samples were collected on day 1 and day 7 before administration (0) and 0.5, 1, 4, 8, 12, and 24 hours after administration; and on days 3, 4, 5, and 6 before administration (0). […]
Group 5 animals received a single topical application of sample 3a (administered at 25 µL/m^2 with a concentration of 6 mg/mL), and blood and skin samples were collected before administration (0) and at 0.5, 1, 3, and 6 hours after administration. […] The homogenized samples were extracted using three volumes of acetonitrile and quantified against a standard curve utilizing an LC-MS/MS system.
The concentrations of the active pharmaceutical ingredient in plasma, stratum corneum, epidermis, and dermis samples were determined using a high-performance liquid chromatography-[…] (LC-MS/MS) method.

## Cc1cnc(Nc2cnn(C3CC(C)(C)OC(C)(C)C3)c2)nc1-c1ccc(C(=O)NCC#N)cc1 [active pharmaceutical ingredient]
7 consecutive days of once-daily topical application of the ointment at 12 µg/cm^2, both sexes
  accumulation: exposure levels (AUC0-last and Cmax) in the stratum corneum, epidermis, and dermis: no accumulation
All plasma samples, topical application, Bama miniature pigs
  Concentrations in plasma samples: below the lower limit of quantification

Reference: EP4721741A1, “PHARMACEUTICAL COMPOSITION, TOPICAL PREPARATION, AND PREPARATION METHOD THEREFOR AND USE THEREOF” (Lynk Pharmaceuticals Co. Ltd., priority 2023, dated 2024)
